Experimental data: patent US7432392B2, “Ester derivatives and medical use thereof” (Japan Tobacco Inc., priority 2003, dated 2008)

biological target: T1, Microsomal triglyceride transfer protein (MTP) from bovine liver (Bos taurus, UniProt P55156); test: Inhibition of interliposomal triglyceride (TG) transfer activity by MTP; assay type: biochemical; details: MTP-mediated TG transfer between donor and acceptor liposomes, 37° C., one hour
T1 construct: the purified MTP was used for the test; from tissue; host or cells: bovine liver
T1 sequence (P55156 12-887): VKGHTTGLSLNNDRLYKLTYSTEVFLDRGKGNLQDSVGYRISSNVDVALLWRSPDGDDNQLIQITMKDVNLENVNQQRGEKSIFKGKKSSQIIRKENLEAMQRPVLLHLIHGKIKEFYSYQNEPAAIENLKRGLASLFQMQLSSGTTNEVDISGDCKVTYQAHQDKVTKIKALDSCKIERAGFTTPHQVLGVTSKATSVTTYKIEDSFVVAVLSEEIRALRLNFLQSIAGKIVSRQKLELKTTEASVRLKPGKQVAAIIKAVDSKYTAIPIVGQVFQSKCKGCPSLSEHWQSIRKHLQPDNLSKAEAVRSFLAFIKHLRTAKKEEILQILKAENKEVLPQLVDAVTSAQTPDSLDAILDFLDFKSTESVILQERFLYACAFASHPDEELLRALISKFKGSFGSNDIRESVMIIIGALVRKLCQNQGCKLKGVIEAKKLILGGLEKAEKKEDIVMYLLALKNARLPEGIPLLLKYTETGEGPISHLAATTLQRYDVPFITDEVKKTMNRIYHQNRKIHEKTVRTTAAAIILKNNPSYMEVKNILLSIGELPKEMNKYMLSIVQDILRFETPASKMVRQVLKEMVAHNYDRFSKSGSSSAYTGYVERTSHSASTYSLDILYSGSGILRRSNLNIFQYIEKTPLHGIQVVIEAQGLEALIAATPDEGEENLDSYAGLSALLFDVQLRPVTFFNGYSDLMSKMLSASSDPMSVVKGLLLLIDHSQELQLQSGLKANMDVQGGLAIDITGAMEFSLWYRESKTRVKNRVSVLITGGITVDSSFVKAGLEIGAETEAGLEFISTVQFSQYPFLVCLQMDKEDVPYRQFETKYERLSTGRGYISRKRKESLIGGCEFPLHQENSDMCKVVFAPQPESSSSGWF
T1 sequence (P05307 21-510 partner): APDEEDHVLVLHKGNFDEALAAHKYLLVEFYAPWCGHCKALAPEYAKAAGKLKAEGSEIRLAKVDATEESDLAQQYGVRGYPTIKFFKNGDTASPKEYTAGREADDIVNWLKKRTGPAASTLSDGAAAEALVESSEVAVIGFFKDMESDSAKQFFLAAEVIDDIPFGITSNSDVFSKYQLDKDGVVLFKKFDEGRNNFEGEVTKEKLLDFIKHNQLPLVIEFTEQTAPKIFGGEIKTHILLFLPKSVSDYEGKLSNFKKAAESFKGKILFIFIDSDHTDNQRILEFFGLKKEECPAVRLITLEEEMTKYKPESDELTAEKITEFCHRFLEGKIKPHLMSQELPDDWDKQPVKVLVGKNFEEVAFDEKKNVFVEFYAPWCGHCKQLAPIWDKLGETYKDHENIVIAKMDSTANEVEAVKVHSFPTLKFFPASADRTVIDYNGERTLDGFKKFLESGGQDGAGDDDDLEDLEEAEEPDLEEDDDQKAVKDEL
Protocol: Microsomal triglyceride transfer protein (MTP) from bovine liver was partially purified in such a way described below. A buffer (50 mM Tris, 250 mM sucrose, 1 mM EDTA, 0.02% NaN3 (pH 7.4)) for making a homogenate preparation was added to bovine liver, and the mixture was homogenated under ice-cooling, then centrifuged at 10,000×g (4° C., 30 minutes) The supernatant was adjusted to pH 5.1 with hydrochloric acid, and stirred for 30 minutes. The solution was further centrifuged at 10,000×g (4° C., 30 minutes), and 1 mM Tris buffer was added to the precipitated residue, and the mixture was adjusted to pH 8.6 with sodium hydroxide. After addition of 2.7 M ammonium sulfate solution, the mixture was stirred for 30 minutes, then centrifuged at 10,000×g (4° C., 40 minutes). The resulting supernatant was served as a crude extraction fraction of MTP and stored at −80° C. under freezing. In its practical use, the crude extraction fraction of MTP was purified by column chromatography on diethylaminoethyl (DEAE) Sepharose using FPLC (Fast Performance Liquid Chromatography) system, and the purified MTP was used for the test.
Small unilamellar-vesicle (SUV) liposome (donor, 0.25 mol % triolein, 5 mol % cardiolipin) labeled with ^14C-triolein and non-labeled SUV liposome (acceptor, 0.25 mol % triolein) were prepared. A fixed amount of donor and acceptor, and MTP were mixed with a sample dissolved in DMSO or with DMSO. The mixture was incubated in a 15 mM Tris hydrochloride buffer (pH 7.4) containing 40 mM sodium chloride, 1 mM EDTA (ethylenediaminetetraacetic acid), 0.02% NaN3 and 0.5% bovine serum albumin at 37° C. for one hour. After completion of the incubation, a suspension of DEAE cellulose (50% v/v) in 15 mM Tris hydrochloride buffer (pH 7.4) was added to the above solution, and the mixture was centrifuged to separate the donor and the acceptor. The radioactivity in the acceptor was measured by liquid scintillation counter. The value obtained by subtracting the radioactivity in the blank from the amount of radioactivity in the acceptor of a DMSO group was determined as MTP-mediated TG transfer activity, and it was compared with the value obtained by subtracting the radioactivity in the blank from the radioactivity in a sample group. The blank was prepared by adding 15 mM Tris-HCl buffer (pH 7.4) in place of MTP. Inhibition rate (%) was calculated from the values obtained according to the following equation.
Inhibition rate (%)=100×(1 minus ((radioactivity of sample group minus radioactivity of blank group)/(radioactivity of DMSO group minus radioactivity of blank group))). 50% Inhibition rate (IC50) was determined on the basis of the above equation.

Row | SMILES | IC50
1 | CCOC(=O)C(COC(=O)Oc1ccc(N(C)C(=O)c2ccccc2-c2ccc(C(F)(F)F)cc2)c(C(=O)N(C)C)c1)(C(=O)OCC)c1ccccc1 [Example 2-17] | 100 to 1000 nM
2 | CCOC(=O)C(COC(=O)Oc1c(F)cc(NC(=O)c2ccccc2-c2ccc(C(F)(F)F)cc2)c(C(=O)N(C)C)c1F)(C(=O)OCC)c1ccccc1 [Example 2-20] | 10 to 100 nM
3 | CCOC(=O)C(COC(=O)Oc1ccc(NC(=O)c2cnc(NC)nc2-c2ccc(C(F)(F)F)cc2)c(C(=O)N(C)C)c1)(C(=O)OCC)c1ccccc1 [Example 2-27] | 10 to 100 nM
4 | CCN(C)C(=O)C(COC(=O)Oc1c(F)cc(NC(=O)c2ccccc2-c2ccc(C(F)(F)F)cc2)c(C(=O)N(C)C)c1F)(C(=O)N(C)CC)c1ccccc1 [Example 2-31] | 10 to 100 nM
5 | CCOC(=O)C(COC(=O)Oc1c(F)cc(NC(=O)c2cccc(F)c2-c2ccc(C(F)(F)F)cc2)c(C(=O)N(C)C)c1F)(C(=O)OCC)c1cccs1 [Example 2-33] | < 10 nM
6 | CCOC(=O)C(COC(=O)Oc1c(F)cc(NC(=O)c2cccc(C)c2-c2ccc(C(F)(F)F)cc2)c(C(=O)N(C)C)c1F)(C(=O)OCC)c1cccs1 [Example 2-34] | < 10 nM
7 | CCOC(=O)C(COC(=O)Oc1c(F)cc(NC(=O)c2cc(C)ccc2-c2ccc(C(F)(F)F)cc2)c(C(=O)N(C)C)c1F)(C(=O)OCC)c1cccs1 [Example 2-35] | 10 to 100 nM
8 | CCOC(=O)C(COC(=O)Oc1c(F)cc(NC(=O)c2cccc(OC)c2-c2ccc(C(F)(F)F)cc2)c(C(=O)N(C)C)c1F)(C(=O)OCC)c1cccs1 [Example 2-36] | < 10 nM
9 | CCOC(=O)C(COC(=O)Oc1c(F)cc(NC(=O)c2ccc(OC)cc2-c2ccc(C(F)(F)F)cc2)c(C(=O)N(C)C)c1F)(C(=O)OCC)c1cccs1 [Example 2-37] | 10 to 100 nM
10 | CCOC(=O)C(COC(=O)Oc1c(F)cc(NC(=O)c2ccccc2-c2ccc(C(F)(F)F)cc2)c(C(=O)N2CCOCC2)c1F)(C(=O)OCC)c1cccs1 [Example 2-38] | 10 to 100 nM
11 | CCOC(=O)C(COC(=O)Oc1c(F)cc(NC(=O)c2c(C)cccc2-c2ccc(C(F)(F)F)cc2)c(C(=O)N(C)C)c1F)(C(=O)OCC)c1cccs1 [Example 2-39] | < 10 nM
12 | CCOC(=O)C(COC(=O)Oc1c(F)cc(NC(=O)c2ccccc2-c2ccc(C(F)(F)F)c(F)c2)c(C(=O)N(C)C)c1F)(C(=O)OCC)c1cccs1 [Example 2-40] | < 10 nM
13 | CCOC(=O)C(COC(=O)Oc1c(F)cc(NC(=O)c2ccccc2-c2ccc(C(F)(F)F)cc2)c(C(=O)N(C)CCOC)c1F)(C(=O)OCC)c1cccs1 [Example 2-41] | < 10 nM
14 | CCOC(=O)C(COC(=O)Oc1c(F)cc(NC(=O)c2ccccc2-c2ccc(C(F)(F)F)cc2)c(C(=O)N(C)CC(=O)OC)c1F)(C(=O)OCC)c1cccs1 [Example 2-42] | 10 to 100 nM
15 | CCOC(=O)C(COC(=O)Oc1c(F)cc(NC(=O)c2ccc(C)cc2-c2ccc(C(F)(F)F)cc2)c(C(=O)N2CCOCC2)c1F)(C(=O)OCC)c1cccs1 [Example 2-43] | 10 to 100 nM
16 | CCOC(=O)C(COC(=O)Oc1c(F)cc(NC(=O)c2ccccc2-c2ccc(C(F)(F)F)cc2)c(C(=O)N(C)C)c1F)(C(=O)OCC)c1nccs1 [Example 2-44] | 10 to 100 nM
17 | CCOC(=O)C(COC(=O)Oc1c(F)cc(NC(=O)c2ccccc2-c2ccc(C(F)(F)F)cc2)c(C(=O)N(C)CCO)c1F)(C(=O)OCC)c1cccs1 [Example 2-45] | 100 to 1000 nM
18 | CCOC(=O)C(COC(=O)Oc1c(F)cc(NC(=O)c2ccccc2-c2ccc(C(F)(F)F)cc2)c(C(=O)N2CCN(C(C)=O)CC2)c1F)(C(=O)OCC)c1cccs1 [Example 2-46] | 100 to 1000 nM
19 | CCOC(=O)C(COC(=O)Oc1c(F)cc(NC(=O)c2ccccc2-c2ccc(C(F)(F)F)cc2)c(C(=O)N2CCC(O)CC2)c1F)(C(=O)OCC)c1cccs1 [Example 2-47] | 100 to 1000 nM
20 | CCOC(=O)C(COC(=O)Oc1c(F)cc(NC(=O)c2ccccc2-c2ccc(C(F)(F)F)cc2)c(OC)c1F)(C(=O)OCC)c1cccs1 [Example 2-48] | < 10 nM
21 | CCOC(=O)C(COC(=O)Oc1c(F)cc(NC(=O)c2ccccc2-c2ccc(C(F)(F)F)cc2)cc1F)(C(=O)OCC)c1cccs1 [Example 2-49] | < 10 nM
22 | CCOC(=O)C(COC(=O)Oc1c(F)cc(NC(=O)c2ccccc2-c2ccc(C(F)(F)F)cc2)c(OC(=O)N(C)C)c1F)(C(=O)OCC)c1cccs1 [Example 2-50] | 10 to 100 nM

Other lines, results leading:

Row | IC50 | SMILES
23 | < 10 nM | CCOC(=O)C(COC(=O)Oc1ccc(NC(=O)c2ccc(C(F)(F)F)nc2-c2ccc(C(F)(F)F)cc2)c(C(=O)N(C)C)c1)(C(=O)OCC)c1ccccc1 [Example 2-16]
24 | < 10 nM | CCOC(=O)C(COC(=O)Oc1ccc(NC(=O)c2ccccc2-c2ccc(C(F)(F)F)cc2)c(C(=O)N(C)C)c1)(C(=O)OCC)c1ccccn1 [Example 2-18]
25 | < 10 nM | CCOC(=O)C(COC(=O)Oc1ccc(NC(=O)c2ccc(C)nc2-c2ccc(C(F)(F)F)cc2)c(C(=O)N(C)C)c1)(C(=O)OCC)c1ccccc1 [Example 2-19]
26 | < 10 nM | CCOC(=O)C(COC(=O)Oc1ccc(NC(=O)c2ccccc2-c2ccc(C(F)(F)F)cc2)c(C(=O)N(C)C)c1Cl)(C(=O)OCC)c1ccccc1 [Example 2-22]
27 | < 10 nM | CCOC(=O)C(COC(=O)Oc1ccc(NC(=O)c2ccc(C)nc2-c2ccc(C(F)(F)F)cc2)c(C(=O)N(C)C)c1)(C(=O)OCC)c1ccccn1 [Example 2-23]
28 | < 10 nM | CCOC(=O)C(COC(=O)Oc1ccc(NC(=O)c2cccnc2-c2ccc(C(F)(F)F)cc2)c(C(=O)N(C)C)c1)(C(=O)OCC)c1ccccc1 [Example 2-25]
29 | < 10 nM | CCOC(=O)C(COC(=O)Oc1c(F)cc(NC(=O)c2ccccc2-c2ccc(C(F)(F)F)cc2)c(C(=O)N(C)C)c1F)(C(=O)OCC)c1cccs1 [Example 2-26]
30 | < 10 nM | CCOC(=O)C(COC(=O)Oc1ccc(NC(=O)c2cnc(N(C)C)nc2-c2ccc(C(F)(F)F)cc2)c(C(=O)N(C)C)c1)(C(=O)OCC)c1ccccc1 [Example 2-28]
31 | < 10 nM | CCOC(=O)C(COC(=O)Oc1c(F)cc(NC(=O)c2ccc(C)cc2-c2ccc(C(F)(F)F)cc2)c(C(=O)N(C)C)c1F)(C(=O)OCC)c1cccs1 [Example 2-29]
32 | < 10 nM | CCOC(=O)C(COC(=O)Oc1c(F)cc(NC(=O)c2ccc(C)nc2-c2ccc(C(F)(F)F)cc2)c(C(=O)N(C)C)c1F)(C(=O)OCC)c1cccs1 [Example 2-30]
33 | < 10 nM | CCOC(=O)C(COC(=O)Oc1c(F)cc(NC(=O)c2ccc(C(F)(F)F)cc2-c2ccc(C(F)(F)F)cc2)c(C(=O)N(C)C)c1F)(C(=O)OCC)c1cccs1 [Example 2-32]
